Results published in ChEMBL document CHEMBL1201862, “PubChem BioAssay data set” (2004).
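Each compound was tested at five concentrations against cells in 96-well plates for 48 hours. GI50 = concentration required for 50% inhibition of growth.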 Calls of active or inactive are those of the source. Cut-off read from the data, not from the text of the source: active = GI50 up to about 1.1 µM and inactive = higher.

Legend:
Test in all cases: inhibition of tumour cell growth, NCI panel, 48 h
MDA-MB-231 = tested on: MDA-MB-231
DU-145 = tested on: DU-145
ACHN = tested on: ACHN
NCI-H226 = tested on: NCI-H226
OVCAR-5 = tested on: OVCAR-5
OVCAR-3 = tested on: OVCAR-3
OVCAR-8 = tested on: OVCAR-8
U-251 = tested on: U-251
TK-10 = tested on: TK-10
A549 = tested on: A549
NCI-H460 = tested on: NCI-H460
A498 = tested on: A498
Malme-3M = tested on: Malme-3M
NCI-H522 = tested on: NCI-H522
SK-MEL-28 = tested on: SK-MEL-28
NCI/ADR-RES = tested on: NCI/ADR-RES
SNB-19 = tested on: SNB-19
SR = tested on: SR
HOP-62 = tested on: HOP-62
CCRF-CEM = tested on: CCRF-CEM

Measured: GI50

NC(Cc1ccc(O)cn1)C(=O)O (stereo not given)
inactive: MDA-MB-231 > 100 µM | DU-145 > 100 µM | ACHN > 100 µM | NCI-H226 > 100 µM | OVCAR-5 > 100 µM | OVCAR-3 > 100 µM | OVCAR-8 > 100 µM | U-251 35.2 µM | TK-10 > 100 µM | A549 > 100 µM | NCI-H460 > 100 µM | A498 > 100 µM | Malme-3M > 100 µM | NCI-H522 > 100 µM | SK-MEL-28 > 100 µM | NCI/ADR-RES > 100 µM | SNB-19 > 100 µM | SR > 100 µM | HOP-62 > 100 µM

C/C=C1/CN2CCc3c([nH]c4ccccc34)[C@@H]2C[C@@H]1Cc1nccc2c1[nH]c1cc(O)ccc12
inactive: MDA-MB-231 1.64 µM | DU-145 2.07 µM | ACHN 2.29 µM | NCI-H226 3.85 µM | OVCAR-5 2.93 µM | OVCAR-3 2.39 µM | OVCAR-8 1.9 µM | U-251 2.19 µM | TK-10 1.95 µM | CCRF-CEM 2.9 µM | A549 2.23 µM | NCI-H460 16.5 µM | A498 1.93 µM | NCI-H522 1.89 µM | SK-MEL-28 1.92 µM | NCI/ADR-RES 1.72 µM | SNB-19 2.26 µM | SR 11.7 µM | HOP-62 1.98 µM

CCCn1cnc2c(/N=N/O)ncnc21
inactive: MDA-MB-231 > 100 µM | DU-145 > 100 µM | ACHN > 100 µM | NCI-H226 > 100 µM | OVCAR-5 > 100 µM | OVCAR-3 > 100 µM | OVCAR-8 > 100 µM | U-251 > 100 µM | TK-10 > 100 µM | NCI-H460 > 100 µM | A498 > 100 µM | Malme-3M > 100 µM | NCI-H522 > 100 µM | SK-MEL-28 > 100 µM | NCI/ADR-RES > 100 µM | SNB-19 > 100 µM | SR > 100 µM | HOP-62 > 100 µM

C=C1C(=O)OC2/C=C(\C)CC/C=C(\C)CC(OC(=O)/C(=C/CO)CO)[C@@H]12 (stereo not given in full)
inactive: MDA-MB-231 13.7 µM | DU-145 20 µM | ACHN 6.21 µM | NCI-H226 32.8 µM | OVCAR-5 17.3 µM | OVCAR-3 5.7 µM | OVCAR-8 1.98 µM | U-251 1.4 µM | TK-10 5.51 µM | CCRF-CEM 2.09 µM | A549 23.4 µM | NCI-H460 22.1 µM | A498 19 µM | Malme-3M 2.38 µM | NCI-H522 1.75 µM | SK-MEL-28 15 µM | NCI/ADR-RES 20 µM | SNB-19 > 51.4 µM | SR 9.73 µM
